Data reported in patent US10562908B2, “Ortho substituted phenylpyrazolo- and phenylpyrrolo-pyridazine derivatives having multimodal activity against pain” (priority 2016, dated 2020).
Read-outs that look alike come from different tables or passages of the source.

How the values were obtained:
[1] = target: Human α2δ-1 subunit of Cav2.2 calcium channel (Homo sapiens, UniProt P54289); assay: Human α2δ-1 subunit of Cav2.2 calcium channel assay ([3H]-Gabapentin); format: binding
Method: Human α2δ-1 Subunit of Cav2.2 Calcium Channel Assay
Human α2δ-1 enriched membranes (2.5 μg) were incubated with 15 nM of radiolabeled [3H]-Gabapentin in assay buffer containing Hepes-KOH 10 mM, pH 7.4. NSB (non specific binding) was measured by adding 10 μM pregabalin. After 60 min incubation at 27° C., binding reaction was terminated by filtering through Multiscreen GF/C (Millipore) presoaked in 0.5% polyethyleneimine in Vacuum Manifold Station, followed by 3 washes with ice-cold filtration buffer containing 50 mM Tris-HCl, pH 7.4. Filter plates were dried at 60° C. for 1 hour and 30 μl of scintillation cocktail were added to each well before radioactivity reading. Readings were performed in a Trilux 1450 Microbeta radioactive counter (Perkin Elmer), i.e. Human α2δ-1 enriched membranes (2.5 μg) were incubated with 15 nM of radiolabeled [3H]-Gabapentin in assay buffer containing Hepes-KOH 10 mM, pH 7.4. NSB (non specific binding) was measured by adding 10 μM pregabalin. The binding of the test compound was measured at five different concentrations. After 60 min incubation at 27° C., binding reaction was terminated by filtering through Multiscreen GF/C (Millipore) presoaked in 0.5% polyethyleneimine in Vacuum Manifold Station, followed by 3 washes with ice-cold filtration buffer containing 50 mM Tris-HCl, pH 7.4. Filter plates were dried at 60° C. for 1 hour and 30 μl of scintillation cocktail were added to each well before radioactivity reading. Readings were performed in a Trilux 1450 Microbeta radioactive counter (Perkin Elmer).

human μ-opioid receptor = target: T1, human μ-opioid receptor (Homo sapiens, UniProt P35372); assay: Human μ-opioid receptor radioligand assay ([3H]-DAMGO); format: binding
T1 construct: expressed in transfected cells; host or cells: CHO-K1
T1 sequence (P35372 whole entry): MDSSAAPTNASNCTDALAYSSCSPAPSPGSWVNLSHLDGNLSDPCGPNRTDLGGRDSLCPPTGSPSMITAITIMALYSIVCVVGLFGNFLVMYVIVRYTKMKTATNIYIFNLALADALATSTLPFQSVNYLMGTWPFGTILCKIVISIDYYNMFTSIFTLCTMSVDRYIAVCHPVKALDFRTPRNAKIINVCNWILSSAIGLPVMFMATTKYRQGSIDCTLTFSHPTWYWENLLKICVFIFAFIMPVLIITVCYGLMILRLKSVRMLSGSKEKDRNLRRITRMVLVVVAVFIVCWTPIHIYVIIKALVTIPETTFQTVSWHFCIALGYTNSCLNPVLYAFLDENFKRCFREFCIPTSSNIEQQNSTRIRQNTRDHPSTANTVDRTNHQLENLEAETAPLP
Method: Human μ-Opioid Receptor Radioligand Assay
To investigate binding properties of test compounds to human μ-opioid receptor, transfected CHO-K1 cell membranes and [^3H]-DAMGO (Perkin Elmer, ES-542-C), as the radioligand, were used. The assay was carried out with 20 μg of membrane suspension, 1 nM of [^3H]-DAMGO in either absence or presence of either buffer or 10 μM Naloxone for total and non-specific binding, respectively. Binding buffer contained Tris-HCl 50 mM, MgCl2 5 mM at pH 7.4. Plates were incubated at 27° C. for 60 minutes. After the incubation period, the reaction mix was then transferred to MultiScreen HTS, FC plates (Millipore), filtered and plates were washed 3 times with ice-cold 10 mM Tris-HCL (pH 7.4). Filters were dried and counted at approximately 40% efficiency in a MicroBeta scintillation counter (Perkin-Elmer) using EcoScint liquid scintillation cocktail, preferably, transfected CHO-K1 cell membranes (20 μg) were incubated with 1 nM of [^3H]-DAMGO in assay buffer containing Tris-HCl 50 mM, MgCl2 5 mM at pH 7.4. NBS (non-specific binding) was measured by adding 10 μM Naloxone. The binding of the test compound was measured at five different concentrations. Plates were incubated at 27° C. for 60 minutes. After the incubation period, the reaction mix was then transferred to MultiScreen HTS, FC plates (Millipore), filtered and plates were washed 3 times with ice-cold 10 mM Tris-HCL (pH 7.4). Filters were dried and counted at approximately 40% efficiency in a MicroBeta scintillation counter (Perkin-Elmer) using EcoScint liquid scintillation cocktail.

[2] = human α2δ-1 enriched membranes, 15 nM [3H]-Gabapentin, read-out: Binding α2δ-1 (Ki)
[3] = transfected CHO-K1 cell membranes, 1 nM [3H]-DAMGO, read-out: Binding μ (Ki)

Human α2δ-1 subunit of Cav2.2 calcium channel, sequence (P54289 25-1103): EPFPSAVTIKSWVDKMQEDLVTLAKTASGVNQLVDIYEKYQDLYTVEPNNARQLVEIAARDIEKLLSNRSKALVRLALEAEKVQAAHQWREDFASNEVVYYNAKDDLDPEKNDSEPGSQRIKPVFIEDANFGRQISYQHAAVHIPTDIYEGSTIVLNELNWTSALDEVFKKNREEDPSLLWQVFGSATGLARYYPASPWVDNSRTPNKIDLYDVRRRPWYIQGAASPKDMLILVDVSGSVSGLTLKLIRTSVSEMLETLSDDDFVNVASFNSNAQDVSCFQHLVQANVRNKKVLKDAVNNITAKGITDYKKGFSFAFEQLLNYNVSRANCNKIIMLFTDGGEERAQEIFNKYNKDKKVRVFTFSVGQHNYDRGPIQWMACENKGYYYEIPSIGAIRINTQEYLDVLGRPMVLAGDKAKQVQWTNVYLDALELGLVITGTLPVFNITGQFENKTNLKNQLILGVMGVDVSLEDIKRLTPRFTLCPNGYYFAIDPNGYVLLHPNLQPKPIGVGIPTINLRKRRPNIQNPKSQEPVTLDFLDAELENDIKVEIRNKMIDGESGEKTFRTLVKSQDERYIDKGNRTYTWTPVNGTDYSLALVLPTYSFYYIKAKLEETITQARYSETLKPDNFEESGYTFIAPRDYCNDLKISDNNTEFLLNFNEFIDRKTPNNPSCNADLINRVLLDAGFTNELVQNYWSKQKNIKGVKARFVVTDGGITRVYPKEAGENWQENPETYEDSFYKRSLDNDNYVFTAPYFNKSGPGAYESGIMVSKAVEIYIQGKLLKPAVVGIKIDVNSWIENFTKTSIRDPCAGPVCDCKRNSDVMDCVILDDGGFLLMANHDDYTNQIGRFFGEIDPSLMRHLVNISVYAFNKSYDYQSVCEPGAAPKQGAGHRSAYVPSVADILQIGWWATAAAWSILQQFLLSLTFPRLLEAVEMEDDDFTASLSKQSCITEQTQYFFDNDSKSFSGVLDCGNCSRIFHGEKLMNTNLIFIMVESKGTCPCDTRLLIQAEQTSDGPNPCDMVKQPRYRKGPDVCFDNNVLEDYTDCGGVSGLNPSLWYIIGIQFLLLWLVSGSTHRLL

| Structure (SMILES) | Ki [1, 2] [nM] | Ki (human μ-opioid receptor; [3]) [nM] | Ki [1] [nM] | Ki (human μ-opioid receptor) [nM] |
| --- | --- | --- | --- | --- |
| CNCCC(Oc1cc(Br)ccc1-n1nc2c(N(C)C)nnc(C)c2c1C)c1ccccc1 (centres unmarked) [Example 25, 2-(4-bromo-2-(3-(methylamino)-1-phenylpropoxy)phenyl)-N,N,3,4-tetramethyl-2H-pyrazolo[3,4-d]pyridazin-7-amine] | 500 to 5000 | > 500 | – | – |
| CNCCC(Oc1ccc(C(=O)N(C)C)cc1-n1nc2c(N(C)C)nnc(C)c2c1C)c1ccccc1 (centres unmarked) [Example 96, 3-(7-(Dimethylamino)-3,4-dimethyl-2H-pyrazolo[3,4-d]pyridazin-2-yl)-N,N-dimethyl-4-(3-(methylamino)-1-phenylpropoxy)benzamide] | > 5000 | > 500 | – | – |
| CNCCC(Oc1ccccc1-n1cc2cnnc(N(C)C)c2n1)c1ccccc1 (centres unmarked) [Example 71, N,N-dimethyl-2-(2-(3-(methylamino)-1-phenylpropoxy)phenyl)-2H-pyrazolo[3,4-d]pyridazin-7-amine] | 500 to 5000 | > 500 | – | – |
| Cc1nnc(N(C)C)c2nn(-c3ccccc3OCC3CCCNC3)c(C)c12 (centres unmarked) [Example 5, N,N,3,4-tetramethyl-2-(2-(piperidin-3-ylmethoxy)phenyl)-2H-pyrazolo[3,4-d]pyridazin-7-amine] | 500 to 5000 | > 500 | – | – |
| CNCCC(Oc1ccccc1-n1nc2c(NC)nnc(C)c2c1C)c1ccccc1 (centres unmarked) [Example 68, N,3,4-Trimethyl-2-(2-(3-(methylamino)-1-phenylpropoxy)phenyl)-2H-pyrazolo[3,4-d]pyridazin-7-amine] | 500 to 5000 | > 500 | – | – |
| Cc1nnc(N(C)C)c2nn(-c3ccccc3OCCN3CCCC3)c(C)c12 [Example 2, N,N,3,4-tetramethyl-2-(2-(2-(pyrrolidin-1-yl)ethoxy)phenyl)-2H-pyrazolo[3,4-d]pyridazin-7-amine] | > 5000 | > 500 | – | – |
| Cc1nnc(N(C)C)c2nn(-c3ccccc3OC3CNCc4ccccc43)c(C)c12 (centres unmarked) [Example 32, N,N,3,4-tetramethyl-2-(2-((1,2,3,4-tetrahydroisoquinolin-4-yl)oxy)phenyl)-2H-pyrazolo[3,4-d]pyridazin-7-amine] | 500 to 5000 | > 500 | – | – |
| Cc1nnc(N(C)C)c2nn(-c3ccccc3OC(CCNCC(F)F)c3ccccc3)c(C)c12 (centres unmarked) [Example 56, 2-(2-(3-((2,2-difluoroethyl)amino)-1-phenylpropoxy)phenyl)-N,N,3,4-tetramethyl-2H-pyrazolo[3,4-d]pyridazin-7-amine] | – | – | 500 to 5000 | 100 to 500 |
| CNCCC(Oc1ccc(NC(C)=O)cc1-n1nc2c(N(C)C)nnc(C)c2c1C)c1ccccc1 (centres unmarked) [Example 83, N-(3-(7-(dimethylamino)-3,4-dimethyl-2H-pyrazolo[3,4-d]pyridazin-2-yl)-4-(3-(methylamino)-1-phenylpropoxy)phenyl)acetamide] | 500 to 5000 | > 500 | – | – |
| CNCCC(Oc1ccccc1-n1nc2c(CC#N)nnc(C)c2c1C)c1ccccc1 (centres unmarked) [Example 63, 2-(3,4-Dimethyl-2-(2-(3-(methylamino)-1-phenylpropoxy)phenyl)-2H-pyrazolo[3,4-d]pyridazin-7-yl)acetonitrile] | > 5000 | > 500 | – | – |
| CCCNCCC(Oc1ccccc1-n1nc2c(N(C)C)nnc(C)c2c1C)c1ccccc1 (centres unmarked) [Example 24, N,N,3,4-tetramethyl-2-(2-(1-phenyl-3-(propylamino)propoxy)phenyl)-2H-pyrazolo[3,4-d]pyridazin-7-amine] | – | – | 500 to 5000 | 100 to 500 |
| CNCCC(Oc1ccccc1-n1nc2c(N(C)C)nnc(C)c2c1C)c1ccncc1 (centres unmarked) [Example 19, N,N,3,4-tetramethyl-2-(2-(3-(methylamino)-1-(pyridin-4-yl)propoxy)phenyl)-2H-pyrazolo[3,4-d]pyridazin-7-amine] | 500 to 5000 | > 500 | – | – |
| Cc1nnc(N(C)C)c2nn(-c3ccccc3OCC(N)c3ccccc3)c(C)c12 (centres unmarked) [Example 17, 2-(2-(2-amino-2-phenylethoxy)phenyl)-N,N,3,4-tetramethyl-2H-pyrazolo[3,4-d]pyridazin-7-amine] | 500 to 5000 | > 500 | – | – |
| Cc1nnc(N(C)C)c2nn(-c3ccccc3OC(c3ccccc3)C3CCN(C)CC3)c(C)c12 (centres unmarked) [Example 54, N,N,3,4-tetramethyl-2-(2-((1-methylpiperidin-4-yl)(phenyl)methoxy)phenyl)-2H-pyrazolo[3,4-d]pyridazin-7-amine] | > 5000 | > 500 | – | – |
| CNCCC(Oc1ccc(Br)cc1-n1nc2c(N(C)C)nnc(C)c2c1C)c1ccccc1 (centres unmarked) [Example 28, 2-(5-bromo-2-(3-(methylamino)-1-phenylpropoxy)phenyl)-N,N,3,4-tetramethyl-2H-pyrazolo[3,4-d]pyridazin-7-amine] | 500 to 5000 | > 500 | – | – |
| CNCCC(Oc1ccc(O)cc1-n1nc2c(N(C)C)nnc(C)c2c1C)c1ccccc1 (centres unmarked) [Example 97, 3-(7-(Dimethylamino)-3,4-dimethyl-2H-pyrazolo[3,4-d]pyridazin-2-yl)-4-(3-(methylamino)-1-phenylpropoxy)phenol] | 500 to 5000 | > 500 | – | – |
| CNCCC(Oc1ccccc1-n1nc2c(N(C)C)nnc(C)c2c1C)c1cccnc1 (centres unmarked) [Example 21, N,N,3,4-tetramethyl-2-(2-(3-(methylamino)-1-(pyridin-3-yl)propoxy)phenyl)-2H-pyrazolo[3,4-d]pyridazin-7-amine] | 500 to 5000 | > 500 | – | – |
| CNCCC(Oc1ccccc1-n1nc2c(N(C)C)nnc(C)c2c1C)c1ccccc1F (centres unmarked) [Example 41, 2-(2-(1-(2-fluorophenyl)-3-(methylamino)propoxy)phenyl)-N,N,3,4-tetramethyl-2H-pyrazolo[3,4-d]pyridazin-7-amine] | 500 to 5000 | > 500 | – | – |
| CNCCCOc1ccccc1-n1nc2c(N(C)Cc3ccccc3)nnc(C)c2c1C [Example 40, N-benzyl-N,3,4-trimethyl-2-(2-(3-(methylamino)propoxy)phenyl)-2H-pyrazolo[3,4-d]pyridazin-7-amine] | 500 to 5000 | > 500 | – | – |
| CNCCC(Oc1cc(NC(C)=O)ccc1-n1nc2c(N(C)C)nnc(C)c2c1C)c1ccccc1 (centres unmarked) [Example 82, N-(4-(7-(dimethylamino)-3,4-dimethyl-2H-pyrazolo[3,4-d]pyridazin-2-yl)-3-(3-(methylamino)-1-phenylpropoxy)phenyl)acetamide] | 500 to 5000 | > 500 | – | – |
| CNCCC(Oc1ccccc1-n1nc2c(N3CC(OC)C3)nnc(C)c2c1C)c1ccccc1 (centres unmarked) [Example 35, 3-(2-(7-(3-methoxyazetidin-1-yl)-3,4-dimethyl-2H-pyrazolo[3,4-d]pyridazin-2-yl)phenoxy)-N-methyl-3-phenylpropan-1-amine] | 500 to 5000 | > 500 | – | – |
| Cc1nnc(N(C)C)c2nn(-c3ccccc3OCC3NCCc4ccccc43)c(C)c12 (centres unmarked) [Example 29, N,N,3,4-tetramethyl-2-(2-((1,2,3,4-tetrahydroisoquinolin-1-yl)methoxy)phenyl)-2H-pyrazolo[3,4-d]pyridazin-7-amine] | 500 to 5000 | > 500 | – | – |
| CCNCC[C@@H](Oc1ccccc1-n1nc2c(N(C)C)nnc(C)c2c1C)c1ccccc1 [Example 101, (R)-2-(2-(3-(Ethylamino)-1-phenylpropoxy)phenyl)-N,N,3,4-tetramethyl-2H-pyrazolo[3,4-d]pyridazin-7-amine] | – | – | 500 to 5000 | 100 to 500 |
| CCN(C)c1nnc(C)c2c(C)n(-c3ccccc3OC(CCNC)c3ccccc3)nc12 (centres unmarked) [Example 37, N-ethyl-N,3,4-trimethyl-2-(2-(3-(methylamino)-1-phenylpropoxy)phenyl)-2H-pyrazolo[3,4-d]pyridazin-7-amine] | – | – | 500 to 5000 | 100 to 500 |
| CNCCC(Oc1cc(C#N)ccc1-n1nc2c(N(C)C)nnc(C)c2c1C)c1ccccc1 (centres unmarked) [Example 85, 4-(7-(Dimethylamino)-3,4-dimethyl-2H-pyrazolo[3,4-d]pyridazin-2-yl)-3-(3-(methylamino)-1-phenylpropoxy)benzonitrile] | > 5000 | > 500 | – | – |
